# According to US20120134985A1, “METHODS FOR MODULATING METABOLIC AND CIRCADIAN RHYTHMS” (The Salk Institute for Biological Studies, priority 2009, published 2012):
# What was measured:
# [1] = tested on: mCRY1; assay: Levels of exogenously expressed Flag-mCRY1 in HeLa cells expressing WT or KD LKB1 (immunoblot); assay type: cell-based, mouse; details: HeLa cells with wild type (WT) LKB1; 2 mM AICAR for 2 hours
# Excerpt: (A) Sequence alignments showing evolutionary conservation of the regions surrounding S71 of mCRY1 in cryptochrome circadian transcriptional repressors (species names in red font) and blue light photoreceptors (species names in blue font). The highlighted numbers above the sequences indicate amino acid preferences at those positions relative to the target serine for phosphorylation by AMP kinase: red indicates a preference for acidic residues (K/R) and green for hydrophobic residues (L/I/V/F). (B) Top: sequence alignment of the phospho-peptides against which antibodies to mCRY1-pS71 and mACC1-pS79 were raised. Bottom: Both anti-mCRY1-pS71 and anti-ACC1-pS79 antibodies recognize WT but not S71A Flag-mCRY1 immunoprecipitated from AD293 cells. (C) anti-mCRY1-p571 was used to detect phosphorylation of Ser71 in Flag-CRY1 immunoprecipitated from AD293 cells transiently expressing wild type CRY1 (WT) or CRY1S71A (S71A) in the absence or presence of activated alleles of AMPKα1 (CAα1) or AMPKα2 (CAα2). Transiently expressed myc-CAα1 and myc-CAα2 were immunostained with polyclonal rabbit antibodies raised against the myc epitope tags and anti-rabbit AF488 (green). Nuclei were counterstained with DAPI (blue). […] CRY1 was detected by immunoprecipitation and immunoblotting for the Flag epitope in (D-G). […]
# [2] = tested on: CRY1; assay: Flag-CRY1 degradation/stability in AMPK+/+ and AMPK-/- mouse embryonic fibroblasts (immunoprecipitation, immunoblot, cycloheximide time course); assay type: cell-based
# Excerpt: (A) Sequence alignments showing evolutionary conservation of the regions surrounding S71 of mCRY1 in cryptochrome circadian transcriptional repressors (species names in red font) and blue light photoreceptors (species names in blue font). The highlighted numbers above the sequences indicate amino acid preferences at those positions relative to the target serine for phosphorylation by AMP kinase: red indicates a preference for acidic residues (K/R) and green for hydrophobic residues (L/I/V/F). (B) Top: sequence alignment of the phospho-peptides against which antibodies to mCRY1-pS71 and mACC1-pS79 were raised. Bottom: Both anti-mCRY1-pS71 and anti-ACC1-pS79 antibodies recognize WT but not S71A Flag-mCRY1 immunoprecipitated from AD293 cells. (C) anti-mCRY1-p571 was used to detect phosphorylation of Ser71 in Flag-CRY1 immunoprecipitated from AD293 cells transiently expressing wild type CRY1 (WT) or CRY1S71A (S71A) in the absence or presence of activated alleles of AMPKα1 (CAα1) or AMPKα2 (CAα2). Transiently expressed myc-CAα1 and myc-CAα2 were immunostained with polyclonal rabbit antibodies raised against the myc epitope tags and anti-rabbit AF488 (green). Nuclei were counterstained with DAPI (blue). (D) HeLa cells transiently expressing Flag-CRY1 with wild type (WT) or kinase dead (KD) LKB1 were treated with vehicle (−) or 2 mM AICAR (+) for 2 hours. (E) AD293 cells transiently expressing the indicated alleles of Flag-mCRY1 were treated with media containing 25 mM or 0.5 mM glucose. (F) Paired wild type (AMPK+/+) and ampkα1^−/−;ampkα2^−/− (AMPK−/−) mouse embryonic fibroblasts stably expressing Flag-tagged wild type CRY1 (WT) or CRY1S71A/S280A (AA) were treated with vehicle (−) or 2 mM AICAR (+) for 2 hours. (G) MEFs described in (F) were treated with 100 μg/ml cycloheximide (CHX) for the indicated times. CRY1 was detected by immunoprecipitation and immunoblotting for the Flag epitope in (D-G). […]
# [3] = tested on: reverba and dbp expression; assay: Quantitative PCR of circadian transcripts in serum-stimulated mouse embryonic fibroblasts; assay type: cell-based; details: 25 mM glucose supplemented with 1 mM AICAR
# Protocol: (A) Unsynchronized paired wild type (AMPK^+/+) or ampkα1^−/−; ampkα2^−/− (AMPK−/−) mouse embryonic fibroblasts were stimulated by 2 hour exposure to 50% horse serum followed by transfer to media containing 25 mM glucose, 0.5 mM glucose or 25 mM glucose supplemented with 1 mM AICAR. Quantitative PCR analysis was performed using cDNA samples collected at the indicated times following stimulation. Data represent the mean of two independent experiments, each analyzed in triplicate. (B) Fibroblasts stably expressing Bmall-luciferase were cultured in media containing the indicated amounts of glucose with or without 2 mM AICAR. Typical results of continuous monitoring of luciferase activity are shown. (C and D) Quantitation of the circadian period (C) and amplitude (D) of Bmall-driven luciferase activity from experiments performed as described in (B). Data in (C) and (D) represent the mean±standard deviation for four samples per condition. […]
# FIG. 10A-D show disruption of AMPK alters circadian rhythms in MEFs. […] Quantitative PCR analysis was performed using cDNA samples prepared from lysates collected at the indicated times following stimulation. Data represent the mean±standard deviation of two or three independent experiments each analyzed in triplicate. […]
# [4] = tested on: Bmall-luciferase; assay: Real time bioluminescence monitoring of Bmall-luciferase circadian rhythms; assay type: cell-based, human; details: high glucose medium supplemented with 2 mM AICAR
# Protocol: (A) Unsynchronized paired wild type (AMPK^+/+) or ampkα1^−/−; ampkα2^−/− (AMPK−/−) mouse embryonic fibroblasts were stimulated by 2 hour exposure to 50% horse serum followed by transfer to media containing 25 mM glucose, 0.5 mM glucose or 25 mM glucose supplemented with 1 mM AICAR. Quantitative PCR analysis was performed using cDNA samples collected at the indicated times following stimulation. Data represent the mean of two independent experiments, each analyzed in triplicate. (B) Fibroblasts stably expressing Bmall-luciferase were cultured in media containing the indicated amounts of glucose with or without 2 mM AICAR. Typical results of continuous monitoring of luciferase activity are shown. (C and D) Quantitation of the circadian period (C) and amplitude (D) of Bmall-driven luciferase activity from experiments performed as described in (B). Data in (C) and (D) represent the mean±standard deviation for four samples per condition. ANOVA analysis indicated a significant difference between categories. ** P<0.01 vs. samples cultured in 25 mM glucose in Scheffe's post-hoc analysis.
# The Bmall promoter is repressed by REVERBa. […]
# Real Time Bioluminescence Monitoring—The human osteosarcoma U2OS reporter cell line stably expressing a Bmall promoter driven luciferase has been described. […] Bioluminescence was continuously recorded by a LumiCycle apparatus from Actimetrics, Inc.
# [5] = tested on: Fas and Por expression in liver; assay: Liver gene expression (quantitative PCR) in wildtype and Cry1-/-;Cry2-/- mice injected with AICAR; assay type: in vivo, mouse
# Protocol: Wildtype (WT) or Cry1^−/−;Cry2^−/− (CRY^−/−) mice were injected with either saline (black bars) or 500 mg AICAR per kg of bodyweight (red bars) at 6:00 pm. cDNA was prepared from livers collected four hours later at 10:00 pm and gene expression was analyzed by quantitative PCR using Sybr GreenER chemistry. […] Data represent the mean±s.e.m. for 3-5 mice per condition.
# Gene Expression—RNA was extracted from livers or cultured fibroblasts with Trizol or using the Qiagen RNeasy purification system. cDNA was prepared using the SuperscriptII reverse transcriptase (Invitrogen) and analyzed for gene expression using quantitative real-time PCR with either SYBR green (Invitrogen) or TaqMan (Applied Biosystems) chemistry. Primer sequences are available upon request.
# Mice—LKB1^fl/fl mice were a gift from Dr. Ronald De Pinho, Cry1^−/−;Cry2^−/− mice were a gift from Dr. Aziz Sancar. Adenovirus expressing Cre recombinase was from the University of Iowa Transgenic Core facility. All animal care and treatments were in accordance with the Salk Institute guidelines for the care and use of animals.
# Furthermore, the effect on metabolic physiology of genetic disruption of both Cry1 and Cry2 in mice is examined.
# [6] = tested on: AMPK; assay: In vitro phosphorylation assay of purified Flag-mCRY1 by purified AMPK; assay type: biochemical; details: 300 μM AMP; 30 minutes; 32P-ATP
# Protocol: Flag-tagged mCRY1 purified from AD293 cells was incubated for 30 minutes with #^32P-ATP in the absence or presence of AMP kinase and 300 μM AMP as indicated. Phosphorylation of mCRY1 was detected by autoradiography; total mCRY1 levels were determined by immunoblot for the Flag epitope.
# In vitro Phosphorylation Assay—Flag-mCRY1 was purified from transfected AD293 cells and combined with ^32P-ATP and purified AMPK (from Upstate Biotechnology) in the presence or absence of 300 uM AMP for 30 minutes at room temperature. The reaction mixture was separated by SDS-PAGE and transferred to nitrocellulose. Following radioactive visualization by phosphoimager, the nitrocellulose was immunoblotted for the Flag tag.
# [7] = tested on: AMPK; details: cited from earlier work
# [8] = WT or Cry1-/-;Cry2-/- mice, 500 mg AICAR per kg of bodyweight, livers collected four hours later
compound,measurement,setting,value
"NC(=O)c1ncn([C@@H]2O[C@H](CO)[C@@H](O)[C@H]2O)c1N [AICAR, 5-amino-4-imidazolecarboxamide riboside]",levels of exogenously expressed mCRY1,[1],reduction was enhanced
same,stability of wild type CRY1,[2]; 4-hour time course of cycloheximide treatment in the presence of AICAR,reduced stability
same,effect on WT or AA CRY1,"[2]; AMPK-/- MEFs (absence of functional AMPK), 2 mM AICAR for 2 hours",no effect
same,degradation of wild type (WT) Flag-CRY1,"[2]; wild type (AMPK+/+) MEFs, 2 mM AICAR for 2 hours",acutely degraded
same,expression of reverba and dbp,[3]; MEFs lacking AMPK (AMPK-/-),neither glucose deprivation nor AICAR treatment affected
same,amplitude of circadian reverba and dbp expression,[3]; wild type fibroblasts,mimicked the effects of glucose deprivation
same,amplitude of Bmall-luciferase expression,[4],decreased the amplitude
same,Fas (fatty acid synthase) expression in liver,[5]; [8],activated by AICAR regardless of Cry1 and Cry2 genotype
same,Por (p450 oxidoreductase) expression in liver,[5]; [8],AICAR-induced activation requires cryptochromes
same,gene expression in the livers,[5]; wildtype and cryptochrome-deficient mice injected with AICAR,cryptochromes are required for AICAR-induced activation of a subset of the genes
Nc1ncnc2c1ncn2[C@@H]1O[C@H](COP(=O)(O)O)[C@@H](O)[C@H]1O [AMP],phosphorylation of mCRY1 by purified AMPK,[6],strongly activated
"NC(=O)c1ncn([C@@H]2O[C@H](COP(=O)(O)O)[C@@H](O)[C@H]2O)c1N [ZMP, 5-amino-4-imidazolecarboxamide ribotide]",AMPK activation,[7]; AMP analog formed in the cell from AICAR,has been shown to activate AMPK
same,specificity as AMPK activator,[7]; also acts as an AMP mimic in the regulation of other enzymes,not a specific AMPK activator
